According to article PMC9304322, “Targeting retinoic acid receptor alpha-corepressor interaction activates chaperone-mediated autophagy and protects against retinal degeneration” (Nature Communications, 2022):
Where “and” joins values, the source holds several entries; their conditions need not be identical. Equal values may be shown once.

Key:
[1] = biological target: T1, RARα and the N-CoR1 peptide (Homo sapiens, UniProt P10276); assay: Fluorescence polarization binding assay, RARα LBD and FITC-N-CoR1 peptide; details: 10 μΜ compound
T1 construct: human RARα (residues 176-421); His6-SUMO (N, cleaved yes); made in house; host or cells: Escherichia coli BL21(DE3) RIL
T1 sequence (P10276 176-421, other chains not shown): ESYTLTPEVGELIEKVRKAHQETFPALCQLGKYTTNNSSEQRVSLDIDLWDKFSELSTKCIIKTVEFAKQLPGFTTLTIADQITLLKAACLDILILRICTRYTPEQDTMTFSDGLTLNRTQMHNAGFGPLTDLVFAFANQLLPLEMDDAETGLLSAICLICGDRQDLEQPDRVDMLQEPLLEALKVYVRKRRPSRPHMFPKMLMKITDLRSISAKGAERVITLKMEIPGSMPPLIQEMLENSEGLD
Method: The ligand binding domain (LBD) of the human RARα (residues 176-421) was fused to a preceding His6-SUMO tag separated by a ubiquitin-like protease (ULP1) cleavage site and was expressed in Escherichia coli BL21(DE3) RIL cell strain. Cells were grown at 37 °C in LB medium supplemented with 50 µg/mL kanamycin until OD600 reached about 0.8. Expression of T7 polymerase was induced by addition of isopropyl-b-d-thiogalactoside (IPTG, #10724815001) to a final concentration of 0.8 mM and cells were incubated at 20 °C overnight. Cell cultures were harvested by centrifugation at 8,000 × g for 15 mins. The cell pellet from 1 liter of LB growth was resuspended in 50 mL lysis buffer (20 mM Tris-HCl pH 8, 500 mM NaCl, 25 mM imidazole) supplemented with one complete™, EDTA-free protease inhibitor tablet (Roche Applied Science, #11873580001). The suspension was lysed using a high pressure homogenizer and centrifuged at 35,000 × g at 4 °C for 45 minutes. […]
The fluorescein-tagged peptide of N-CoR1, FITC-Ahx-[…] […] Fluorescence polarization assays (FPA) were performed using established procedures. […] Fluorescence polarization was measured at 30 min on a F200 PRO microplate reader (TECAN) with the excitation wavelength set at 470 nm and emission measured at 530 nm. EC50 values were calculated by nonlinear regression analysis of competitive binding curves using GraphPad Prism software.

[2] = tested on: lamp2a mRNA; assay: lamp2a mRNA in hippocampus of treated KFERQ-Dendra mice; type: in vivo, mouse; details: for Fig. 3e value relative to Vehicle: single replicate values, one sample t test; for mRNA levels of lamp2a (Fig. 4d), individual mice / mRNA levels of lamp2a (Fig. 4d), mean: hippocampus, i.p. 30 mg/kg bw daily for three days, vehicle mean = 1.000; for mRNA levels of lamp2a (Fig. 4d), individual mice: 30 mg/kg; for mRNA levels of lamp2a (Fig. 4d), mean: n = 4 mice
Method: C57BL/6 J mice wild-type (WT) and homozygous for the Pde6 mutation (rd10 mouse model of retinal degeneration) were obtained from The Jackson Laboratory and experiments were performed at the age indicated in each part of the study. C57BL/6 KFERQ-Dendra mice were generated by back-crossing FVB KFERQ-Dendra mice with wild-type C57BL/6 mice for 8 generations. Both male and female animals were used in this study in equally distribution groups. However, results from both sexes were pooled, because of absence of significant differences in any of the parameters analyzed after statistical analysis with a mixed model of two-way ANOVA sex and treatment as independent variables and the corresponding measure as dependent variable. All animals were housed in a barrier-controlled facility (19–23 °C 30–60% relative humidity; 12 h light/dark cycle) with ad libitum access to standard chow pellets (protein 19 gm%/carbohydrate 67 gm%/fat 4 gm%) and water. For animal administration of CA compounds, a formula containing 30% PEG 400 (Sigma, #8.0745), 65% of 5% glucose solution, 5% Tween 80 (Sigma, #P1754) was used to dissolve them. CA compounds were prepared freshly by adding 5% DMSO and sonicating for 1 h. Treatment of KFERQ-Dendra mice with the CA compounds was done at 4 months of age by i.p. daily injection of 30 mg/kg bw or vehicle for three consecutive days and tissues collected 6 h after the last injection. In the case of rd10 mice, animals were daily injected from P18 to P25 with CA77 (40 mg/kg bw). In the case of intravitreal administration, a single intravitreal injection was applied at P18 with CA77 (40 µM) in DMSO/PBS and the contralateral eye was injected with PBS and DMSO at same concentration. At P26, mice were sacrificed and eyes fixed overnight with 4% PFA (Sigma, #P6148) in PBS at 4 °C for immunofluorescence or retinas dissected and immediately frozen for biochemistry. Distribution of animals in the vehicle or treatment group was done randomly. ICR (CD-1) outbred 3 months old male mice from ENVIGO were used for the pharmacokinetic studies (see pharmacokinetic section for housing and handling details). All animal studies and procedures complied with ethical regulations, were performed in accordance with the European Union guidelines and the ARVO Statement for the Use of Animals in Ophthalmic and Vision Research and were approved by the Institutional Animal Care and Use Committee at the Albert Einstein College of Medicine, the CSIC Bioetica Comite and approved by the Comunidad de Madrid, PROEX232/17.
RNA was extracted from individual retinas or tissue sections (brain, liver). Total RNA from retinas was extracted using TRIzol Reagent (Invitrogen, # 15596-018), and reverse transcription was performed using the High-Capacity cDNA Reverse Transcription Kit (Applied Biosystems, # 4374966) according to the manufacturer’s instructions. Quantitative real-time PCR was performed in a Light Cycler 480 Instrument (Roche) with Taqman LightCycler 480 probes Master Mix (Roche, #4887301001) using Taqman assays (Life Technologies). For cells in culture, RNA was extracted using RNeasy Plus Mini Kit (Qiagen, #74034), and reverse transcription was performed using Superscript III (Invitrogen, #18080051). Quantitative RT-PCR analysis were performed using Power SYBR Green PCR Master Mix (Applied Biosystems, #4368708) on a StepOne Plus Real-Time PCR System (Applied Biosystems). Mm01184405_m1 probe (Thermofisher) was used for rhodopsin and the sequence of all the other probes used for qPCR is included in Supplementary Table 2.

Row | Compound | N-CoR1 peptide binding to RARα in fluorescence polarization assays [1] | Fig. 3e value relative to Vehicle [2] | mRNA levels of lamp2a (Fig. 4d), individual mice [2] | mRNA levels of lamp2a (Fig. 4d), mean [2]
1 | Clc1ccc2c(c1)OCC(c1ccc(-c3ccccc3)cc1)=N2 [CA39] | enhanced N-CoR1 peptide binding to RARα | 1.07 and 1.28 and 1.20 and 1.32 and 1.95 and 2.13 | 1.581 and 1.814 and 1.628 and 1.163 | 1.547
2 | CC(=O)Nc1ccc(C2=Nc3ccc(Cl)cc3OC2)cc1 [CA77] | enhanced N-CoR1 peptide binding to RARα | 2.04 and 2.28 and 1.87 and 1.53 and 2.54 and 2.31 | 1.395 and 1.349 and 1.27 and 1.907 | 1.480
